{"source": "patent US9533049B2", "about": "“Method for preparing nanoparticles based on functional amphiphilic molecules or macromolecules, and the use thereof” (UNIVERSITE VICTOR SEGALEN BOURDEAUX 2, priority 2007, dated 2017)", "type_in_all_cases": "cell-based", "key": {"[1]": {"tested_on": "SKOV3 (ovarian adenocarcinoma line, resistant to cis-platin)", "test": "Cytotoxicity, MTS assay (Example 22), SKOV3", "settings": "SKOV3, treatment 24 hours in medium without serum, MTS 48 hours after washing; read-out: concentration necessary to obtain 50% cell death (IC50)", "experimental": "(§1) 2500 cells (IGROV1, SKOV3, ovarian adenocarcinoma lines) per well are incubated in 100 μL of the medium with serum in a 96-well plate. After 24 hours the medium is aspirated and the cells are treated with free cis-platin or cis-platin encapsulated in the nanoparticles of Example 16 in 100 μL of the medium without serum at different concentrations (500, 100, 10, 1, 0.1, 0.01, 0.001 μM). After treatment for 24 hours, the medium is removed and the cells are washed twice with 100 μL of PBS then incubated with 100 μL of the medium with serum.\n(§2) The absorbance at 490 nm is measured after incubation for 2 to 4 hours at 37° C. The absorbance is proportional to the cell viability."}, "[2]": {"tested_on": "IGROV1 (ovarian adenocarcinoma line, sensitive to cis-platin)", "test": "Cytotoxicity, MTS assay (Example 22), IGROV1", "settings": "IGROV1, treatment 24 hours in medium without serum, MTS 48 hours after washing; read-out: concentration necessary to obtain 50% cell death (IC50)", "experimental": "as §1, §2"}, "IGROV1 cells [3]": {"tested_on": "IGROV1 cells", "test": "Cytotoxicity, MTS colorimetric assay (Example 21)", "settings": "IGROV1, incubation time 24 h", "experimental": "1000 to 5000 IGROV1 cells are incubated in 100 μL of medium with serum per well (96-well plate). After 24 h the medium is removed and the cells are treated for 1 to 3 days with the formulations according to the invention and/or free cis-Pt (at the desired concentrations). The cells are incubated at 37° C. in 200 μL of medium with serum.\n(§3) The survival of the cells was determined, and the overall percentage of death (or cytotoxicity) obtained at the different concentrations of formulations tested was compared with that obtained with the negative controls (untreated cells). The cytotoxicity results were presented in the form of dose-effect curves characterized by their inhibitory concentration 50 (IC50), i.e. the concentration at which 50% dead cells are observed."}, "IGROV1 cells [4]": {"tested_on": "IGROV1 cells", "test": "Assay of intracellular cis-platin (ICP optical assay after cell lysis)", "settings": "10^6 cells, 100 μM, 2 h", "experimental": "IGROV1 cells (ovarian adenocarcinoma line) at 80% confluence (dish 10 cm in diameter) are treated with 100 μM of free cis-platin or cis-platin encapsulated in the nanoparticles of Example 16 for 2, 4 or 6 h. On completion of this treatment two washings with PBS are carried out. The cells are treated with trypsin and resuspended in PBS. Two washings of the cell suspensions with PBS are carried out (centrifugation 1000 rpm/1 min). The cells are suspended in 1 mL of PBS and counted.\n10^6 cells are lysed with 500 μL of the cell lysis solution (lysis buffer from SIGMA). The volume is topped up to 5 mL with milli-Q water with 1% HNO3 acid."}, "[5]": {"tested_on": "human cancer cell line HCT8 (colorectal adenocarcinoma)", "test": "Cytotoxicity, crystal violet staining, HCT8 line", "settings": "HCT8, short exposure 30 min in physiological serum; preliminary results", "experimental": "The test implemented uses the human cancer cell line HCT8 (colorectal adenocarcinoma), known for its intrinsic resistance to platinum derivatives.\nThe protocol is as follows: • […], the cells are implanted in 96-well plates at a density of 50,000 cells per well. • On D0, the cells are treated by the formulation test, either for a short exposure period (30 min) in physiological serum, or for a long exposure period (72 h) in culture medium. The range of concentrations produced comprises the points 0-0.4-0.8-1.5-3-6.25-12.5-25-50 and 100 mg/L. Negative controls (untreated cells) and positive controls (cis-platin) were carried out simultaneously. • On D3, the culture medium is changed, and the 72 h treatment stopped. • On D6, the protocol is completed, and the cells remaining at the bottom of the well are stained with crystal violet.\nas §3, with “different test formulation” for “different”, “concentrations” for “concentrations of formulations tested”"}}, "data": [{"smiles": "N.N.[Cl][Pt][Cl]", "note": "[cis-platin]", "values": [{"measurement": "IC50", "setting": "[1]", "value": 4.3, "unit": "µM"}, {"measurement": "IC50", "setting": "[2]", "value": 2.41, "unit": "µM"}, {"measurement": "IC50 Expressed", "setting": "IGROV1 cells [3]; mg/L of cis-platin", "value": 9.48, "unit": "µg/mL"}, {"measurement": "IC50", "setting": "IGROV1 cells [3]; read-out: IC50 Expressed", "value": 31.6, "unit": "µM"}, {"measurement": "cis-platin internalized", "setting": "IGROV1 cells [4]", "value": 0.5, "unit": "nmol"}, {"measurement": "IC50 (mg/L)", "setting": "[5]", "value": "IC50 > at 100 mg/L"}]}]}
